The values that follow are results of earlier work, collected in patent publication US20250231185A1, “Coronavirus T Cell Epitopes, Megapools and Uses Thereof” (La Jolla Institute for Immunology, priority 2021, published 2025).

For one series, the system named is CD8+ T cells. To be noted: SARS-CoV-2 Ag S; T cell type recognizing the epitope; cited from earlier work.
As to 1299 (DSKVGGNYNY) [compound 1299], the Restriction result is listed as “CD8”.

Turning to 1300 (KVGGNYNYLY) [compound 1300], the Restriction entry was “CD8”.

Turning to 1301 (VGGNYNYLY) [compound 1301], the Restriction entry is recorded as “CD8”.

Regarding 1302 (GNYNYLYRLF) [compound 1302], the Restriction result is listed as “CD8”.

In the case of 1305 (YNYLYRLFR) [compound 1305], the Restriction entry is reported as “CD8”.

As to 1306 (RLFRKSNLK) [compound 1306], the Restriction entry is listed as “CD8”.

In the case of 1307 (KSNLKPFER) [compound 1307], the Restriction result is “CD8”.

Consider 1308 (KPFERDISTEI) [compound 1308], for which the Restriction entry is listed as “CD8”.

On to 1310 (FERDISTEIY) [compound 1310], for which the Restriction entry is on record as “CD8”.

For the substance 1311 (FERDISTEI) [compound 1311], the Restriction result is recorded as “CD8”.

Turning to 1312 (NGVEGFNCY) [compound 1312], the Restriction result is on record as “CD8”.

Take 1318 (YQPYRVVVL) [compound 1318]: the Restriction entry is given as “CD8”.

In the case of 1320 (QPYRVVVLSF) [compound 1320], the Restriction result is “CD8”.

Consider 1322 (FELLHAPATV) [compound 1322], for which the Restriction result was “CD8”.

Take 1323 (ELLHAPATV) [compound 1323]: the Restriction entry is reported as “CD8”.

Regarding 1325 (LVKNKCVNF) [compound 1325], the Restriction entry is recorded as “CD8”.

Take 1326 (VLTESNKKF) [compound 1326]: the Restriction entry is recorded as “CD8”.

In the case of 1328 (KFLPFQQFGR) [compound 1328], the Restriction entry was “CD8”.

As to 1329 (DAVRDPQTL) [compound 1329], the Restriction result is “CD8”.

As to 1331 (TPCSFGGVSV) [compound 1331], the Restriction entry is reported as “CD8”.

For the substance 1332 (NTSNQVAVLY) [compound 1332], the Restriction entry is given as “CD8”.

For the substance 1333 (TSNQVAVLY) [compound 1333], the Restriction entry is given as “CD8”.

With 1334 (YQDVNCTEV) [compound 1334], the Restriction entry was “CD8”.

With 1336 (IHADQLTPTW) [compound 1336], the Restriction entry was “CD8”.

On to 1337 (QLTPTWRVY) [compound 1337], for which the Restriction entry is given as “CD8”.

Regarding 1338 (RVYSTGSNV) [compound 1338], the Restriction entry is “CD8”.

In the case of 1339 (RVYSTGSNVF) [compound 1339], the Restriction entry was “CD8”.

As for 1341 (STGSNVFQTR) [compound 1341], the Restriction result is on record as “CD8”.

Turning to 1343 (AEHVNNSY) [compound 1343], the Restriction result was “CD8”.

Take 1344 (YECDIPIGAGI) [compound 1344]: the Restriction result is reported as “CD8”.

Take 1346 (QTNSPRRAR) [compound 1346]: the Restriction result is on record as “CD8”.

Turning to 1348 (SPRRARSV) [compound 1348], the Restriction entry was “CD8”.

On to 1349 (RSVASQSII) [compound 1349], for which the Restriction entry is recorded as “CD8”.

With 1354 (LGAENSVAY) [compound 1354], the Restriction result was “CD8”.

With 1356 (AYSNNSIAI) [compound 1356], the Restriction result was “CD8”.

On to 1357 (NSIAIPTNF) [compound 1357], for which the Restriction entry is “CD8”.

With 1358 (IAIPTNFTI) [compound 1358], the Restriction result is on record as “CD8”.

Consider 1359 (IPTNFTISV) [compound 1359], for which the Restriction entry is “CD8”.

Take 1364 (KTSVDCTMYI) [compound 1364]: the Restriction entry is “CD8”.

As for 1368 (GSFCTQLNR) [compound 1368], the Restriction result is “CD8”.

Take 1369 (TQLNRALTGI) [compound 1369]: the Restriction entry is reported as “CD8”.

Turning to 1370 (QEVFAQVKQIY) [compound 1370], the Restriction result was “CD8”.

For 1372 (EVFAQVKQI) [compound 1372], the Restriction entry is reported as “CD8”.

Regarding 1373 (EVFAQVKQIY) [compound 1373], the Restriction entry was “CD8”.

As to 1374 (VFAQVKQIY) [compound 1374], the Restriction entry was “CD8”.

For the substance 1376 (IYKTPPIKDF) [compound 1376], the Restriction result is listed as “CD8”.

Consider 1377 (ILPDPSKPSK) [compound 1377], for which the Restriction result was “CD8”.

Turning to 1378 (SFIEDLLF) [compound 1378], the Restriction result was “CD8”.

Take 1380 (TLADAGFIK) [compound 1380]: the Restriction entry is on record as “CD8”.

1381 (LADAGFIKQY) [compound 1381]: the Restriction result is given as “CD8”.

Take 1382 (ADAGFIKQY) [compound 1382]: the Restriction entry is given as “CD8”.

In the case of 1383 (GLTVLPPLL) [compound 1383], the Restriction result is “CD8”.

The same series, now with this note: T cell type (CD4 or CD8) recognizing the SARS-CoV-2 epitope; cited from earlier work.
1005 (YLPYPDPSRI) [compound 1005]: the Restriction entry was “CD8”.

As for 1006 (YLPYPDPSRIL) [compound 1006], the Restriction entry is “CD8”.

As to 1007 (LPYPDPSRIL) [compound 1007], the Restriction result is listed as “CD8”.

Take 1010 (QEYADVFHLY) [compound 1010]: the Restriction entry is recorded as “CD8”.

1011 (YADVFHLYL) [compound 1011]: the Restriction entry is reported as “CD8”.

With 1013 (LTNDNTSRYW) [compound 1013], the Restriction result is on record as “CD8”.

With 1014 (NTSRYWEPEFY) [compound 1014], the Restriction entry is reported as “CD8”.

For the substance 1015 (SRYWEPEF) [compound 1015], the Restriction result was “CD8”.

For 1016 (WEPEFYEAM) [compound 1016], the Restriction result is “CD8”.

As for 1017 (AMYTPHTVL) [compound 1017], the Restriction result is listed as “CD8”.

For 1018 (TPHTVLQAV) [compound 1018], the Restriction result was “CD8”.

As for 1021 (QLYLGGMSYY) [compound 1021], the Restriction entry was “CD8”.

In the case of 1022 (KPPISFPL) [compound 1022], the Restriction result was “CD8”.

In the case of 1028 (YRGTTTYKL) [compound 1028], the Restriction entry was “CD8”.

Take 1030 (APTLVPQEHYV) [compound 1030]: the Restriction entry is “CD8”.

1032 (VPQEHYVRI) [compound 1032]: the Restriction result was “CD8”.

As for 1034 (YQKVGMQKY) [compound 1034], the Restriction result is on record as “CD8”.

1035 (FAIGLALYY) [compound 1035]: the Restriction result is given as “CD8”.

Take 1036 (YYPSARIVY) [compound 1036]: the Restriction result was “CD8”.

For 1037 (IPARARVEC) [compound 1037], the Restriction entry was “CD8”.

As for 1038 (IPARARVECF) [compound 1038], the Restriction result is recorded as “CD8”.

As to 1039 (YVFCTVNAL) [compound 1039], the Restriction result is “CD8”.

As to 1040 (VVNARLRAK) [compound 1040], the Restriction result is “CD8”.

For the substance 1043 (RPQIGVVREF) [compound 1043], the Restriction result is “CD8”.

Turning to 1044 (AVASKILGL) [compound 1044], the Restriction entry was “CD8”.

Turning to 1045 (ILGLPTQTV) [compound 1045], the Restriction entry is listed as “CD8”.

1048 (EEAIRHVRAW) [compound 1048]: the Restriction result is “CD8”.

Turning to 1049 (LQLGFSTGV) [compound 1049], the Restriction result is “CD8”.

Turning to 1050 (MYKGLPWNV) [compound 1050], the Restriction result is “CD8”.

For the substance 1051 (KNLSDRVVFV) [compound 1051], the Restriction entry was “CD8”.

For the substance 1054 (PFMIDVQQW) [compound 1054], the Restriction result is on record as “CD8”.

As for 1058 (LLADKFPVL) [compound 1058], the Restriction result is “CD8”.

For the substance 1059 (YKIEELFYSY) [compound 1059], the Restriction entry is “CD8”.

1060 (KIEELFYSY) [compound 1060]: the Restriction entry is on record as “CD8”.

On to 1062 (FTDGVCLFW) [compound 1062], for which the Restriction entry is recorded as “CD8”.

As to 1063 (SLYVNKHAF) [compound 1063], the Restriction result is recorded as “CD8”.

Regarding 1066 (AGFSLWVYK) [compound 1066], the Restriction result is “CD8”.

In the case of 1068 (YNLWNTFTRL) [compound 1068], the Restriction result is recorded as “CD8”.

For the substance 1070 (NTFTRLQSL) [compound 1070], the Restriction entry is listed as “CD8”.

For the substance 1071 (SLENVAFNV) [compound 1071], the Restriction entry is “CD8”.

On to 1073 (TTLPVNVAF) [compound 1073], for which the Restriction result is “CD8”.

For 1074 (TICAPLTVF) [compound 1074], the Restriction result is given as “CD8”.

Turning to 1075 (GRVDGQVDL) [compound 1075], the Restriction entry is recorded as “CD8”.

Consider 1076 (KVDGVVQQL) [compound 1076], for which the Restriction entry is listed as “CD8”.

Take 1077 (VVQQLPETY) [compound 1077]: the Restriction entry was “CD8”.

Consider 1078 (KPRSQMEIDF) [compound 1078], for which the Restriction result was “CD8”.

Consider 1079 (FIERYKLEGY) [compound 1079], for which the Restriction entry is listed as “CD8”.

Consider 1080 (FIPMDSTVKNY) [compound 1080], for which the Restriction entry is “CD8”.

As to 1081 (LLLDDFVEI) [compound 1081], the Restriction result is “CD8”.

Turning to 1083 (SVVSKVVKV) [compound 1083], the Restriction entry is on record as “CD8”.

Turning to 1086 (VAMPNLYKM) [compound 1086], the Restriction entry is listed as “CD8”.

As for 1088 (LPKGIMMNV) [compound 1088], the Restriction entry is on record as “CD8”.

1092 (CATVHTANKW) [compound 1092]: the Restriction entry is on record as “CD8”.

For 1093 (KLMGHFAWW) [compound 1093], the Restriction entry was “CD8”.

Consider 1094 (SSEAFLIGCNY) [compound 1094], for which the Restriction result was “CD8”.

Regarding 1096 (YVMHANYIF) [compound 1096], the Restriction result was “CD8”.

1097 (FWRNTNPIQL) [compound 1097]: the Restriction entry is on record as “CD8”.

Consider 1098 (WRNTNPIQL) [compound 1098], for which the Restriction result is recorded as “CD8”.

As to 1099 (NPIQLSSYSL) [compound 1099], the Restriction result is “CD8”.
